Source: PubChem BioAssay AID179 (DTP/NCI, 2004)
Where “and” joins values, the source holds several entries; their conditions need not be identical. Equal values may be shown once. Calls of active or inactive are those of the source.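 The calls were made as follows: active = compounds giving half or more protection of infected cells from virus-caused growth loss, again on retest; inactive = the rest.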

System: CEM cells HIV-1 protection, formazan growth assay
Assay: NCI AIDS Antiviral Assay
Conditions: for IC50: measured here: growth of uninfected CEM cells
Procedure, shortened: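 Protection of CEM cells against HIV-1 measured as cell growth via soluble formazan read-out, with five concentrations tested on both infected and uninfected cells; failure to protect may reflect toxicity.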

Structure (SMILES) | EC50 [µM] | IC50 | outcome
COC(=O)c1cc2cc3c(c(O)c2c(=O)o1)O[C@@]1(Oc2c(O)c4c(c(O)c2[C@H]1OC1CC(OC)C(O)C(C)O1)C(=O)C=C(OC)C4=O)[C@H](O)C3 (stereo partly drawn) | > 200 | 3.31 µM | 
CN(C)CCCCN1CCc2c(n(C)c3ccccc23)C1=O | > 603 | 43.7 µM and 72.4 µM | 
CCOC(=O)c1[nH]c2nc(SC)nc(NC)c2c1N | > 200 | 129 µM | 
O=[N+]([O-])c1ccccc1OCCOc1ccccc1[N+](=O)[O-] | > 200 | > 200 µM | 
Cc1nn(C(=O)c2ccncc2)c2c1C(c1ccccc1[N+](=O)[O-])SC(N)=N2 (stereo not drawn) |  |  | inactive
O=C(Nc1ccc(O)c(C(=O)O)c1)c1ccccc1 | > 200 | > 200 µM | 
CC(C)OCC(O)COc1ccc2ccc(=O)oc2c1 (stereo not drawn) | > 200 | > 200 µM | 
C=CC1(C)C=C2C(O)CC3C(C)(C(=O)OC)CCCC3(C)C2CC1 (stereo not drawn) | > 21.9 | 11 µM | 
NC(=O)C(=CNc1nc(-c2cccc([N+](=O)[O-])c2)cs1)C(N)=O | > 200 | > 100 µM | 
CN(NC(=O)Nc1cccc2ccccc12)c1ccccc1 | > 24.5 | > 24.5 µM | 
COC(=O)C1=CC2OC13CC1CCC3(C2=O)C1(C)C (stereo not drawn) |  |  | inactive
N=C(N)/N=C(/C=C/c1ccccc1)CC1OC(=O)c2ccccc21 (stereo not drawn) | > 42.7 | > 42.7 µM | 
O=C(NC(CSSCC(NC(=O)c1cnc2ccccc2n1)C(=O)O)C(=O)O)c1cnc2ccccc2n1 (stereo not drawn) | > 200 | > 200 µM | 
CC(C)c1cccc(C(C)C)c1NC(=O)C(=O)C(C(=O)c1ccccc1-c1ccccc1)C1OC(=O)c2ccccc21 (stereo not drawn) | > 64.6 | 25.1 µM | 
Cc1cc(=O)oc2cc(SC(=O)N(C)C)ccc12 | > 200 | > 200 µM | 
CCCCCCCCCCCCCC(=O)NCC(OCC)OCC |  |  | inactive
NC(=O)N/N=C1/C2CC3CC(C2)C1C3 (stereo not drawn) | > 200 | > 200 µM | 
COc1ccc(SCc2cc(OC)ccc2OC)cc1 | > 200 | 3.98 µM | 
Cc1cc(O)c(C=NC(=S)c2cccnc2)c(=O)o1 | > 200 | 77.6 µM | 
CCOC(=O)C(=Cc1cccc(F)c1)C(=O)OCC | > 355 | 22.4 µM | 
COc1ccc(C(c2ccc3c(c2)OCO3)N2C(=O)CCC2C(=O)O)cc1 (stereo not drawn) | > 200 | > 200 µM | 
CC(=O)O[C@@H]1CO[C@H]2O[C@H]3[C@@H](C(C=O)=C[C@H](O)[C@@H]4C5=C(C(C)C)CC[C@]5(C)CC[C@@]34C)[C@@]2(O)C1=O | > 0.575 | 0.0759 µM | 

Structure (SMILES) | EC50 [µM] | IC50 | outcome
O=S1c2ccccc2Sc2ccccc21 | 75.9 | 174 µM | 
Nc1nnc(-c2ccco2)c(-c2ccco2)n1 | > 200 | 186 µM | 
c1ccc(-c2nn3c(-c4ccccc4)nnc3o2)cc1 | > 200 | 40.7 µM | 
Cc1ccc(N=Nc2ccc(O)c(=O)cc2)cc1 | > 11.2 | 6.92 µM | 
Cc1ccc(Nc2nc3c(=O)n(C)c(=O)n(C)c3nc2Nc2ccc(C)cc2)cc1 | > 200 | 2.04 µM | 
O=C(/C=C\c1ccc(Cl)c(Cl)c1)c1ccccc1 | > 200 | 10 µM | 
Cc1cn(C2CC(N=[N+]=[N-])C(COC(=O)CCOCCCCCCCCCl)O2)c(=O)[nH]c1=O (stereo not drawn) | 0.00692 | 20 µM | 
O=C(O)c1ccc(C(=O)c2ccccc2C(=O)O)cc1 | > 200 | > 200 µM | 
CC(C)(Oc1ccc(/C=C/C(=O)c2ccc(Cl)cc2)cc1)C(=O)Nc1c(Cl)cccc1Cl | > 14.8 | > 14.8 µM | 
COc1cc2c(c3c1[C@@H](O)[C@H](C)[C@@H](C)O3)C=CC(C)(C)O2 | > 200 | 79.4 µM | 
O=C1CCCc2cc3c(cc21)CC1(C3)Cc2cc3c(cc2C1)C(=O)CCC3 | > 200 | 0.977 µM | 
Cc1cc2c(c(C#N)c1C)NC(=O)CN=C2c1ccccc1F | 70.8 | > 200 µM | 
CC1(C)OC(=O)C(C(N)=O)=C1/C=C1\OC(=O)c2ccccc21 | > 24 | > 24 µM | 
Cc1ccc(N/N=C/C2=CC(C)(C)C(C#N)(C#N)C(O)=C2C#N)cc1 | > 200 | 6.61 µM | 
N#CN=C1C=CC(=C(C#N)C#N)C=C1 |  |  | inactive
O=C(Nc1nc(C23CC4CC(CC(C4)C2)C3)cs1)c1cc2cc(Cl)ccc2oc1=O | > 200 | > 200 µM | 
COc1cc(C(c2c(O)c3ccccc3oc2=O)N2CCCC2)cc(OC)c1OC (stereo not drawn) | > 200 | 107 µM | 
O=C(CC(=O)c1ccccc1O)c1ccccc1 | > 30.2 | > 30.2 µM | 
C=C(C(=O)O)C1CC[C@@]2(C)CCC[C@@](C)(O)C2C1 (stereo partly drawn) | > 200 | > 200 µM | 
O=C(O)Cc1ccc2c(c1)C(=O)c1ccccc1CO2 |  |  | inactive
COc1ccc(/C=C/C(=O)OCCc2ccccc2)cc1O | > 8.32 | 4.47 µM | 
CSc1cnn(CCC#N)c(=O)n1 | > 200 | 36.3 µM | 
